This assay relates to L1210 leukemia ip in BDF1 mice, survival T/C. The assay can be described thus: NCI In Vivo Anticancer Drug Screen. Data for tumor model L1210 Leukemia (intraperitoneal) in B6D2F1 (BDF1) mice. The note with it: endpoint: mean survival time, higher = longer survival. The gist of the method: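 Mice bearing the transplanted tumor received compound or vehicle. Survival of the treated group was divided by that of the vehicle-treated control group to give the ratio.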

The mark [1] stands for this setting: dose: 25.0 mg/kg/injection, schedule: Q04DX002 (ip), vehicle: Klucel (hydroxypropylcellulose) (HPC).
The mark [2] stands for this setting: dose: 50.0 mg/kg/injection, schedule: Q04DX002 (ip), vehicle: Klucel (hydroxypropylcellulose) (HPC).
[3] abbreviates: dose: 100.0 mg/kg/injection, schedule: Q01DX001 (ip), vehicle: saline.
Where [4] appears, read: dose: 200.0 mg/kg/injection, schedule: Q01DX001 (ip), vehicle: saline.
Where [5] appears, read: dose: 400.0 mg/kg/injection, schedule: Q01DX001 (ip), vehicle: saline.
The mark [6] stands for this setting: dose: 100.0 mg/kg/injection, schedule: Q01DX009 (ip), vehicle: Klucel (hydroxypropylcellulose) (HPC).
[7] abbreviates: dose: 100.0 mg/kg/injection, schedule: Q04DX003 (ip), vehicle: saline.
Setting [8] is: dose: 100.0 mg/kg/injection, schedule: Q01DX009 (ip), vehicle: saline with Tween-80.
Where [9] appears, read: dose: 200.0 mg/kg/injection, schedule: Q01DX009 (ip), vehicle: saline with Tween-80.

Inconclusive results and toxic doses are left out.

`COc1ccc(NC(=O)N(CCCl)N=O)cc1`: the T/C runs as follows: (dose: 0.12 mg/kg/injection, schedule: Q01DX Z (ip), vehicle: carboxymethylcellulose (CMC)) 112 % of control; (dose: 1.25 mg/kg/injection, schedule: Q01DX Z (ip), vehicle: carboxymethylcellulose (CMC)) 123 % of control; (dose: 4.4 mg/kg/injection, schedule: Q01DX015 (ip), vehicle: saline) 200 % of control; (dose: 4.4 mg/kg/injection, schedule: Q01DX Z (ip), vehicle: carboxymethylcellulose (CMC)) 192 % of control; (dose: 5.0 mg/kg/injection, schedule: Q01DX Z (ip), vehicle: carboxymethylcellulose (CMC)) 160 % of control; (dose: 6.6 mg/kg/injection, schedule: Q01DX015 (ip), vehicle: saline) 224 % of control. Further, the T/C is 222 % of control (dose: 6.6 mg/kg/injection, schedule: Q01DX Z (ip), vehicle: carboxymethylcellulose (CMC)); 160 % of control (dose: 9.9 mg/kg/injection, schedule: Q01DX001 (ip), vehicle: carboxymethylcellulose (CMC)); 196 % of control (dose: 10.0 mg/kg/injection, schedule: Q01DX015 (ip), vehicle: saline); 187 % of control (dose: 10.0 mg/kg/injection, schedule: Q01DX Z (ip), vehicle: carboxymethylcellulose (CMC)); 195 % of control (dose: 15.0 mg/kg/injection, schedule: Q01DX015 (ip), vehicle: saline); 120 % of control (dose: 15.0 mg/kg/injection, schedule: Q01DX Z (ip), vehicle: carboxymethylcellulose (CMC)). Moreover, the T/C was 166 % of control (dose: 19.8 mg/kg/injection, schedule: Q01DX001 (ip), vehicle: carboxymethylcellulose (CMC)); 93 % of control (dose: 20.0 mg/kg/injection, schedule: Q01DX Z (ip), vehicle: carboxymethylcellulose (CMC)); 206 % of control (dose: 39.6 mg/kg/injection, schedule: Q01DX001 (ip), vehicle: carboxymethylcellulose (CMC)); 158 % of control (dose: 60.0 mg/kg/injection, schedule: Q01DX001 (ip), vehicle: saline); 105 % of control (dose: 79.2 mg/kg/injection, schedule: Q01DX001 (ip), vehicle: carboxymethylcellulose (CMC)); 111 % of control (dose: 120.0 mg/kg/injection, schedule: Q01DX001 (ip), vehicle: saline). In addition, under “dose: 240.0 mg/kg/injection, schedule: Q01DX001 (ip), vehicle: saline”, the T/C was 156 % of control.
For `OCCN(CC1C(c2ccccc2)C1c1ccccc1)C1CCCCC1` (configuration not stated), the T/C was 98 % of control (dose: 6.25 mg/kg/injection, schedule: Q04DX002 (ip), vehicle: Klucel (hydroxypropylcellulose) (HPC)); 90 % of control under setting [1]; 97 % of control under setting [2]; 97 % of control (dose: 100.0 mg/kg/injection, schedule: Q04DX002 (ip), vehicle: Klucel (hydroxypropylcellulose) (HPC)).
Turning to `CCOC(=O)CS(C)(=O)=O`, the T/C reads like this: under setting [3], 98 % of control; under setting [4], 93 % of control; under setting [5], 94 % of control.
Regarding `O=C(NC1CCCCC1)Oc1cccc(NC(=S)Nc2ccccc2)c1`, the T/C runs as follows: under setting [6], 100 % of control; (dose: 200.0 mg/kg/injection, schedule: Q01DX009 (ip), vehicle: Klucel (hydroxypropylcellulose) (HPC)) 97 % of control; (dose: 400.0 mg/kg/injection, schedule: Q01DX009 (ip), vehicle: Klucel (hydroxypropylcellulose) (HPC)) 92 % of control.
For `C=C(C)COc1c(C)c(C)c(OCC(C)C)c(C)c1C`, the T/C (dose: 50.0 mg/kg/injection, schedule: Q04DX003 (ip), vehicle: Klucel (hydroxypropylcellulose) (HPC)) is 96 % of control; the T/C (dose: 100.0 mg/kg/injection, schedule: Q04DX003 (ip), vehicle: Klucel (hydroxypropylcellulose) (HPC)) was 93 % of control; the T/C (dose: 200.0 mg/kg/injection, schedule: Q04DX003 (ip), vehicle: Klucel (hydroxypropylcellulose) (HPC)) was 93 % of control.
For `COc1ccc(OC)c2c(C(O)CNC34CC5CC(CC(C5)C3)C4)cc(-c3ccc(Cl)cc3)nc12` (configuration not stated), the T/C runs as follows: under setting [7], 97 % of control; (dose: 200.0 mg/kg/injection, schedule: Q04DX003 (ip), vehicle: saline) 92 % of control; (dose: 400.0 mg/kg/injection, schedule: Q04DX003 (ip), vehicle: saline) 92 % of control.
Turning to `S=c1oc2cccc3c2n1CCC3`, the T/C reads like this: under setting [8], 113 % of control; (dose: 100.0 mg/kg/injection, schedule: Q04DX003 (ip), vehicle: saline with Tween-80) 97 % of control; under setting [9], 101 % of control; (dose: 200.0 mg/kg/injection, schedule: Q04DX003 (ip), vehicle: saline with Tween-80) 107 % of control; (dose: 400.0 mg/kg/injection, schedule: Q01DX009 (ip), vehicle: saline with Tween-80) 98 % of control; (dose: 400.0 mg/kg/injection, schedule: Q04DX003 (ip), vehicle: saline with Tween-80) 97 % of control.
On to `C(CC1CCNCC1)CC1CCNCC1` (tested in a mixture with another compound), for which the T/C under setting [3] is 94 % of control.
In the case of `CN1CCN(C(c2ccccc2)c2ccc(Cl)cc2)CC1` (configuration not stated), the T/C by setting is: (dose: 6.25 mg/kg/injection, schedule: Q01DX009 (ip), vehicle: saline) 102 % of control; (dose: 12.5 mg/kg/injection, schedule: Q01DX009 (ip), vehicle: saline) 92 % of control; (dose: 12.5 mg/kg/injection, schedule: Q04DX003 (ip), vehicle: saline) 95 % of control; (dose: 25.0 mg/kg/injection, schedule: Q01DX009 (ip), vehicle: saline) 94 % of control; (dose: 25.0 mg/kg/injection, schedule: Q04DX003 (ip), vehicle: saline) 111 % of control; (dose: 50.0 mg/kg/injection, schedule: Q01DX009 (ip), vehicle: saline) 100 % of control. For the same compound, the T/C was 90 % of control (dose: 50.0 mg/kg/injection, schedule: Q04DX003 (ip), vehicle: saline) and 97 % of control under setting [7].
`CCCCCCCCCCCC(=O)NC(=S)Nc1ccc(C(=O)OCC)cc1`: the T/C is 93 % of control (dose: 100.0 mg/kg/injection, schedule: Q04DX002 (ip), vehicle: saline); 108 % of control (dose: 200.0 mg/kg/injection, schedule: Q04DX002 (ip), vehicle: saline); 108 % of control (dose: 400.0 mg/kg/injection, schedule: Q04DX002 (ip), vehicle: saline).
On to `CC(C)C(=O)[O][Sn]([c]1ccccc1)([c]1ccccc1)[c]1ccccc1`, for which the T/C runs as follows: (dose: 12.5 mg/kg/injection, schedule: Q04DX002 (ip), vehicle: Klucel (hydroxypropylcellulose) (HPC)) 97 % of control; under setting [1], 93 % of control; under setting [2], 93 % of control.
With `CC(=O)Nc1cccc(C(F)(F)F)c1`, the T/C (dose: 25.0 mg/kg/injection, schedule: Q01DX009 (ip), vehicle: Klucel (hydroxypropylcellulose) (HPC)) was 101 % of control; the T/C (dose: 50.0 mg/kg/injection, schedule: Q01DX009 (ip), vehicle: Klucel (hydroxypropylcellulose) (HPC)) was 96 % of control; the T/C under setting [6] was 101 % of control.
As for `OC(c1ccccc1)(c1ccccc1)C(c1ccccc1)c1ccccc1`, the T/C is 93 % of control (dose: 100.0 mg/kg/injection, schedule: Q04DX003 (ip), vehicle: acetone); 97 % of control (dose: 200.0 mg/kg/injection, schedule: Q04DX003 (ip), vehicle: acetone); 87 % of control (dose: 400.0 mg/kg/injection, schedule: Q04DX003 (ip), vehicle: acetone).
In the case of `O=C(O)C1(Br)CC12c1ccccc1-c1ccccc12` (configuration not stated), the T/C (dose: 100.0 mg/kg/injection, schedule: Q01DX001 (ip), vehicle: acetone) is 92 % of control and the T/C (dose: 200.0 mg/kg/injection, schedule: Q01DX001 (ip), vehicle: acetone) was 95 % of control.
In the case of `Cc1cccc(C)c1N(COC(C)C)C(=O)CCl`, the T/C is, setting by setting: under setting [8], 94 % of control; under setting [9], 95 % of control.
Turning to `CC(=O)NCC(C)(C)c1ccccc1`, the T/C under setting [3] is 96 % of control; the T/C (dose: 100.0 mg/kg/injection, schedule: Q01DX009 (ip), vehicle: saline) is 102 % of control; the T/C under setting [4] is 102 % of control; the T/C (dose: 200.0 mg/kg/injection, schedule: Q01DX009 (ip), vehicle: saline) is 100 % of control; the T/C under setting [5] is 110 % of control; the T/C (dose: 400.0 mg/kg/injection, schedule: Q01DX009 (ip), vehicle: saline) is 102 % of control.

These data come from PubChem BioAssay AID248 (DTP/NCI, 2004).
